Measured values reported in patent US12264173B2 (GILEAD SCIENCES, INC., priority 2020, dated 2025).
Like-named read-outs stand apart in the source and are kept apart here.

Experiments:
Type in all cases: cell-based
RSV A2 = assay: RSV NHBE EC50 (RSV A2 antiviral assay in NHBE cells); conditions: Table 3, NHBE cells, RSV A2, 4 days, read-out: RSV NHBE EC50
Summary of the method: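 Antiviral protection in primary bronchial epithelial cells: RSV A2 (1×10^4.5 tissue culture infectious doses/mL) added right after compound, in 3-fold dilutions at 0.05% DMSO, to 7,500 attached cells per well. Cytopathic loss quantified as CellTiter-Glo luminescence after 4-day incubation at 37 °C.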

DENV2 replicon = assay: DENV-2 Huh-7 Rep EC50 (replicon luminescence)
Summary of the method: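 EC50 derived from luminescence dose-response, normalised to DMSO-only 0% inhibition wells, after 1.5 h with EnduRen substrate. Compounds were first exposed for 48 h at 37° C to DENV2 replicon Huh-7 cells (5,000/well).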

RSV strain A2 = assay: microbe, parasite or virus in culture; conditions: Table 3, HEp-2 cells, RSV A2, 4 days, read-out: RSV HEp-2 EC50
Summary of the method: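 Cytopathic-effect protection assay: HEp-2 cells (50,000/mL) infected with pre-titered RSV A2 onto 3-fold serial compound dilutions, incubated 4 days at 37° C. Cell viability read by CellTiter-Glo luminescence; percent inhibition derived against 0% and 100% virus-inhibition controls.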

HRV16 = HRV16 HeLa EC50 (cytopathic effect in H1-HeLa cells)
Summary of the method: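 Read-out is luminescent cell viability (CellTiter-Glo) after 96 h of infection at 33 °C, scaled between uninfected and infected-untreated wells. Before infection with titrated virus, compounds went onto H1-HeLa cells as triplicate 3-fold dilution series.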

[1] = human respiratory syncytial virus, NHBE, 96 h
[2] = Dengue virus, DENV2, Huh-7, 48 h, read-out: DENV-2 REP Huh7 EC50
[3] = human respiratory syncytial virus, HEp-2, 96 h
[4] = 96 h, Table 3; H1-HeLa cells, 96 h; read-out: HRV16 HeLa EC50
[5] = Table 3, Huh-7 DENV2 replicon cells, 48 hours, read-out: DENV-2 REP Huh7 EC50
[6] = Table 3; H1-HeLa cells, 96 h; read-out: HRV16 HeLa EC50
[7] = Dengue virus, DENV2, Huh-7, 48 h, read-out: DENV-2 REP Huh7 EC50, Table 3, Huh-7 DENV2 replicon cells, 48 hours

| Compound | EC50 (RSV A2; [1]) [nM] | EC50 (DENV2 replicon; [2]) [µM] | EC50 (RSV strain A2; [3]) [nM] | EC50 (HRV16; [4]) [nM] | EC50 (RSV A2) [nM] | EC50 (DENV2 replicon; [5]) [µM] | EC50 (RSV strain A2) [nM] | EC50 (HRV16; [6]) [nM] | EC50 (DENV2 replicon; [7]) [µM] |
| --- | --- | --- | --- | --- | --- | --- | --- | --- | --- |
| CCOC(=O)[C@H](C)N[P@](=O)(OC[C@@]1(C#N)O[C@@H](c2ccc3c(N)ncnn23)[C@H](OC(C)=O)[C@@H]1OC(C)=O)Oc1ccccc1 [Example 104, (2R,3S,4S,5S)-5-(4-aminopyrrolo[2,1-f][1,2,4]triazin-7-yl)-2-cyano-2-((((S)-(((S)-1-ethoxy-1-oxopropan-2-yl)amino)(phenoxy)phosphoryl)oxy)methyl) tetrahydrofuran-3,4-diyl diacetate] | 32 | 29.1 | 147 | 703 | – | – | – | – | – |
| CCOC(=O)[C@H](C)N[P@](=O)(OC[C@@]1(C#N)O[C@@H](c2ccc3c(N)ncnn23)[C@H](OC(=O)CC)[C@@H]1OC(=O)CC)Oc1ccccc1 [Example 105, (2R,3S,4S,5S)-5-(4-Aminopyrrolo[2,1-f][1,2,4]triazin-7-yl)-2-cyano-2-((((S)-(((S)-1-ethoxy-1-oxopropan-2-yl)amino)(phenoxy)phosphoryl)oxy)methyl) tetrahydrofuran-3,4-diyl dipropionate] | 13 | 12.9 | 57 | 182 | – | – | – | – | – |
| CC(C)OC(=O)[C@H](C)N[P@](=O)(OC[C@@]1(C#N)O[C@@H](c2ccc3c(NC(=O)C(C)C)ncnn23)[C@H](OC(=O)C(C)C)[C@@H]1OC(=O)C(C)C)Oc1ccccc1 [Example 106] | 15 | 14.6 | 173 | 805 | – | – | – | – | – |
| CCC(=O)O[C@H]1[C@H](c2ccc3c(N)ncnn23)O[C@](C#N)(CO[P@@](=O)(N[C@@H](C)C(=O)OCC2CCOCC2)Oc2ccccc2)[C@H]1OC(=O)CC [Example 108] | – | – | – | – | 6 | 39.3 | 217 | 385 | – |
| CCC(=O)O[C@H]1[C@H](c2ccc3c(N)ncnn23)O[C@](C#N)(CO[P@](=O)(N[C@@H](C)C(=O)OCC2CCOCC2)Oc2ccccc2)[C@H]1OC(=O)CC [Example 109] | – | – | – | – | 32 | 26.3 | 103 | 379 | – |
| CC(=O)O[C@H]1[C@H](c2ccc3c(N)ncnn23)O[C@](C#N)(CO[P@](=O)(N[C@@H](C)C(=O)OCC2CCOCC2)Oc2ccccc2)[C@H]1OC(C)=O [Example 112] | – | – | – | – | 40 | 36.5 | 284 | 2900 | – |
| CCC(CC)COC(=O)[C@H](C)NP(=O)(N[C@@H](C)C(=O)OCC(CC)CC)OC[C@@]1(C#N)O[C@@H](c2ccc3c(N)ncnn23)[C@H](OC(C)=O)[C@@H]1OC(C)=O [Example 114, (2R,3S,4S,5S)-5-(4-Aminopyrrolo[2,1-f][1,2,4]triazin-7-yl)-2-cyano-2-((((((S)-1-(2-ethylbutoxy)-1-oxopropan-2-yl)amino)(((2S)-1-(2-ethylbutoxy)-1-oxopropan-2-yl)amino)phosphoryl)oxy)methyl)tetrahydrofuran-3,4-diyl diacetate] | 201 | – | 1660 | 3850 | – | – | – | – | 26.3 |
| CCC(=O)O[C@H]1[C@H](c2ccc3c(N)ncnn23)O[C@](C#N)(CO[P@@](=O)(N[C@@H](C)C(=O)OCC2CCN(CC(F)(F)F)CC2)Oc2ccccc2)[C@H]1OC(=O)CC [Example 116] | – | – | – | – | 15 | 19.7 | 273 | 303 | – |
| CCC(=O)O[C@H]1[C@H](c2ccc3c(N)ncnn23)O[C@](C#N)(CO[P@](=O)(N[C@@H](C)C(=O)OCC2CCN(CC(F)(F)F)CC2)Oc2ccccc2)[C@H]1OC(=O)CC [Example 117] | – | – | – | – | 20 | 19.1 | 113 | 462 | – |
| CC(=O)O[C@H]1[C@H](c2ccc3c(N)ncnn23)O[C@](C#N)(CO[P@@](=O)(N[C@@H](C)C(=O)OCC2CCN(CC(F)(F)F)CC2)Oc2ccccc2)[C@H]1OC(C)=O [Example 119] | – | – | – | – | 27 | 71.4 | 541 | 1050 | – |
| CC(=O)O[C@H]1[C@H](c2ccc3c(N)ncnn23)O[C@](C#N)(COP(=O)(N[C@@H](C)C(=O)OC2CCCCC2)N[C@@H](C)C(=O)OC2CCCCC2)[C@H]1OC(C)=O [Example 121, (2R,3S,4S,5S)-5-(4-Aminopyrrolo[2,1-f][1,2,4]triazin-7-yl)-2-cyano-2-((((((S)-1-(cyclohexyloxy)-1-oxopropan-2-yl)amino)(((S)-1-cyclohexyloxy-1-oxopropan-2-yl)amino)phosphoryl)oxy)methyl)tetrahydrofuran-3,4-diyl diacetate] | 498 | – | 5450 | 6660 | – | – | – | – | 44.4 |
| CC(C)[C@H](N)C(=O)O[C@H]1[C@H](c2ccc3c(N)ncnn23)O[C@](C#N)(CO[P@@](=O)(N[C@@H](C)C(=O)OC2CCCCC2)Oc2ccccc2)[C@H]1OC(=O)[C@@H](N)C(C)C [Example 122, (2R,3S,4S,5S)-5-(4-aminopyrrolo[2,1-f][1,2,4]triazin-7-yl)-2-cyano-2-((((S)-(((S)-1-(cyclohexyloxy)-1-oxopropan-2-yl)amino)(phenoxy)phosphoryl)oxy)methyl)tetrahydrofuran-3,4-diyl (2S,2'S)-bis(2-amino-3-methylbutanoate)] | 90 | 5.54 | 79 | 301 | – | – | – | – | – |
| CCC(=O)O[C@H]1[C@H](c2ccc3c(N)ncnn23)O[C@](C#N)(COP(=O)(N[C@@H](C)C(=O)OC(C)C)N[C@@H](C)C(=O)OC(C)C)[C@H]1OC(=O)CC [Example 123, ((2R,3S,4R,5S)-5-(4-aminopyrrolo[2,1-f][1,2,4]triazin-7-yl)-2-cyano-3,4-dipropionatetetrahydrofuran-2-yl)methyl bis-isopropyl L-alaninate phosphate] | 175 | – | 2280 | 7570 | – | – | – | – | > 50 |
| CCOC(=O)[C@H](C)NP(=O)(N[C@@H](C)C(=O)OCC)OC[C@@]1(C#N)O[C@@H](c2ccc3c(N)ncnn23)[C@H](OC(=O)CC)[C@@H]1OC(=O)CC [Example 124, ((2R,3S,4R,5S)-5-(4-aminopyrrolo[2,1-f][1,2,4]triazin-7-yl)-2-cyano-3,4-dipropionatetetrahydrofuran-2-yl)methyl bis-ethyl L-alaninate phosphate] | 150 | – | 2100 | 8390 | – | – | – | – | > 50 |
| CC(=O)O[C@H]1[C@H](c2ccc3c(N)ncnn23)O[C@](C#N)(COP(=O)(N[C@@H](C)C(=O)OCc2ccccc2)Oc2ccccc2)[C@H]1OC(C)=O (stereo partly drawn) [Example 126, (2R,3S,4S,5S)-5-(4-aminopyrrolo[2,1-f][1,2,4]triazin-7-yl)-2-((((((S)-1-(benzyloxy)-1-oxopropan-2-yl)amino)(phenoxy)phosphoryl)oxy)methyl)-2-cyanotetrahydrofuran-3,4-diyl diacetate] | 45 | 16 | 121 | 514 | – | – | – | – | – |
| COC(=O)[C@H](C)NP(=O)(N[C@@H](C)C(=O)OC)OC[C@@]1(C#N)O[C@@H](c2ccc3c(N)ncnn23)[C@H](OC(C)=O)[C@@H]1OC(C)=O [Example 127] | 3360 | – | 8060 | > 50000 | – | – | – | – | > 50 |
| COC(=O)[C@H](C)NP(=O)(N[C@@H](C)C(=O)OC)OC[C@@]1(C#N)O[C@@H](c2ccc3c(NC(C)=O)ncnn23)[C@H](OC(C)=O)[C@@H]1OC(C)=O [Example 128] | > 4140 | – | 18800 | > 50000 | – | – | – | – | > 50 |
| COC(=O)[C@H](C)NP(=O)(OC[C@@]1(C#N)O[C@@H](c2ccc3c(N)ncnn23)[C@H](OC(C)=O)[C@@H]1OC(C)=O)Oc1ccccc1 (stereo partly drawn) [Example 129, (2R,3S,4S,5S)-5-(4-aminopyrrolo[2,1-f][1,2,4]triazin-7-yl)-2-cyano-2-((((((S)-1-methoxy-1-oxopropan-2-yl)amino)(phenoxy)phosphoryl)oxy)methyl)tetrahydrofuran-3,4-diyl diacetate] | 77 | 15.5 | 154 | 1110 | – | – | – | – | – |
| COC(=O)[C@H](C)NP(=O)(OC[C@@]1(C#N)O[C@@H](c2ccc3c(NC(C)=O)ncnn23)[C@H](OC(C)=O)[C@@H]1OC(C)=O)Oc1ccccc1 (stereo partly drawn) [Example 132, (2R,3S,4S,5S)-5-(4-acetamidopyrrolo[2,1-f][1,2,4]triazin-7-yl)-2-cyano-2-((((((S)-1-methoxy-1-oxopropan-2-yl)amino)(phenoxy)phosphoryl)oxy)methyl) tetrahydrofuran-3,4-diyl diacetate] | 145 | 29.4 | 434 | 3480 | – | – | – | – | – |
